Assay results reported in patent publication US12655106B2 (Eikonizo Therapeutics, Inc., priority 2021, dated 2026).

Key:
Full length Human HDAC6 = biological target: T1, Full length Human HDAC6 (Homo sapiens, UniProt Q9UBN7); assay: Caliper endpoint assay for HDAC enzymatic activity (HDAC6); format: biochemical; details: for IC50: in vitro enzymatic, Caliper endpoint assay, 30 min pre-incubation, 1 μM substrate peptide; for Selectivity (6 v 8): ratio of HDAC8 IC50/HDAC6 IC50
T1 construct: Full length Human HDAC6; FLAG (C); host or cells: baculovirus expression system
T1 sequence (Q9UBN7 1-1215): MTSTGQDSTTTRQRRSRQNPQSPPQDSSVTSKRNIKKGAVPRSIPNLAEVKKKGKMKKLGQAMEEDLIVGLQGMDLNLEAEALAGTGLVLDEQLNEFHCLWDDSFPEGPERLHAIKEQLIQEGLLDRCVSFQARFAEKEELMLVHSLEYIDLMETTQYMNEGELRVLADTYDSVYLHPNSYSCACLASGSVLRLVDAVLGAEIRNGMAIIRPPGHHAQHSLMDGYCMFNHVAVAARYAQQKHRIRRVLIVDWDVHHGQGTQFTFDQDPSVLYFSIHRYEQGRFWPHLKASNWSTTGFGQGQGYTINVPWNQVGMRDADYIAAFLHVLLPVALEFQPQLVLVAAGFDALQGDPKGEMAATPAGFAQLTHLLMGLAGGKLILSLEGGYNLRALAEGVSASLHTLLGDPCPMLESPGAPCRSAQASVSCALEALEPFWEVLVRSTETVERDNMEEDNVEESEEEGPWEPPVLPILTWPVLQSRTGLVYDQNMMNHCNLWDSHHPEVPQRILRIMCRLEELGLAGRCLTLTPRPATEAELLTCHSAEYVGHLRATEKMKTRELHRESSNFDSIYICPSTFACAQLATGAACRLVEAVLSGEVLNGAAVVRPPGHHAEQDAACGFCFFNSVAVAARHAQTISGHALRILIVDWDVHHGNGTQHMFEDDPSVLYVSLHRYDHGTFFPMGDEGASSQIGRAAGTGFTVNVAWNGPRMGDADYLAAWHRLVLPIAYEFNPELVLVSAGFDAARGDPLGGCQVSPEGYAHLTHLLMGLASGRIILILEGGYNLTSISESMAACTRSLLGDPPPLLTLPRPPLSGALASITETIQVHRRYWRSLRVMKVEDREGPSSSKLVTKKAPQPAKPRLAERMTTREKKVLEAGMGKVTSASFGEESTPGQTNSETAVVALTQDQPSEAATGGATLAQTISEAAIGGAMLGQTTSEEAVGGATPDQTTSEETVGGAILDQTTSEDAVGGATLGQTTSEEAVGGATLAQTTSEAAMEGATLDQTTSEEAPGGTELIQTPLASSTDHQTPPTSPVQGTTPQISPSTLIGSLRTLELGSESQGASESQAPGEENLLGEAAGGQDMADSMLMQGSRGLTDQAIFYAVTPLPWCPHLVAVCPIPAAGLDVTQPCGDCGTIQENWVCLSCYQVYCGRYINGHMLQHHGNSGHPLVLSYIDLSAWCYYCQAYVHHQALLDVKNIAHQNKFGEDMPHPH

Full length Human HDAC8 = biological target: T2, Full length Human HDAC8 (Homo sapiens, UniProt Q9BY41); assay: Caliper endpoint assay for HDAC enzymatic activity (HDAC8); format: biochemical; details: in vitro enzymatic, 30 min pre-incubation, 1 μM substrate peptide
T2 construct: Full length Human HDAC8; HIS (N); host or cells: baculovirus expression system
T2 sequence (Q9BY41 1-377): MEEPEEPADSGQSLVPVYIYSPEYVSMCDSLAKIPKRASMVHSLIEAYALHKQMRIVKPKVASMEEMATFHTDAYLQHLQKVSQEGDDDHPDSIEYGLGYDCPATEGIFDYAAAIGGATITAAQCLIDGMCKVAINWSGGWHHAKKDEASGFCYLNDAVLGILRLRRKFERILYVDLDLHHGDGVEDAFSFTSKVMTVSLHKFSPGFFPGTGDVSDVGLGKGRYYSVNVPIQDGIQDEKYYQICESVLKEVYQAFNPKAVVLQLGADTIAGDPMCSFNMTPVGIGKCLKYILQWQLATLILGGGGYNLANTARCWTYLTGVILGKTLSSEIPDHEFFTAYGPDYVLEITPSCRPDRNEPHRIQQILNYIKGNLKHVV

IC50 (Full length Human HDAC6) [µM]	Selectivity (6 v 8) (Full length Human HDAC6)	IC50 (Full length Human HDAC8) [µM]	SMILES
10 to 100	I (I: 0.1-1)	1 to 10	O=C(NO)c1cc(F)cc(CN2CCC3(CCCCC3)CC2)c1 [Compound 276, 3-((3-azaspiro[5.5]undecan-3-yl)methyl)-5-fluoro-N-hydroxybenzamide]
0.001 to 0.1	IV (IV: >100-1000)	1 to 10	O=C(NO)c1cc(F)c2c(c1)CCN(C1CC3(CNC3)C1)C2 [Compound 289, 2-(2-azaspiro[3.3]heptan-6-yl)-8-fluoro-3,4-dihydro-1H-isoquinoline-6-carbohydroxamic acid]
0.001 to 0.1	IV (IV: >100-1000)	1 to 10	CN1CC2(CC(N3CCc4cc(C(=O)NO)cc(F)c4C3)C2)C1 [Compound 290, 8-fluoro-N-hydroxy-2-(2-methyl-2-azaspiro[3.3]heptan-6-yl)-1,2,3,4-tetrahydroisoquinoline-6-carboxamide]
0.001 to 0.1	IV (IV: >100-1000)	1 to 10	O=C(NO)c1cc(F)c2c(c1)CCN(C1CC3(C1)CN(C1CC1)C3)C2 [Compound 291, 2-(2-cyclopropyl-2-azaspiro[3.3]heptan-6-yl)-8-fluoro-N-hydroxy-1,2,3,4-tetrahydroisoquinoline-6-carboxamide]
0.001 to 0.1	IV (IV: >100-1000)	10 to 100	CC(=O)N1CC2(CC(N3CCc4cc(C(=O)NO)cc(F)c4C3)C2)C1 [Compound 292, 2-(2-acetyl-2-azaspiro[3.3]heptan-6-yl)-8-fluoro-N-hydroxy-1,2,3,4-tetrahydroisoquinoline-6-carboxamide]
0.001 to 0.1	IV (IV: >100-1000)	10 to 100	O=C(NO)c1cc(F)c2c(c1)CCN(C1CCC13CCC3)C2 (stereo not drawn) [Compound 299, 8-fluoro-2-spiro[3.3]heptan-3-yl-3,4-dihydro-1H-isoquinoline-6-carbohydroxamic acid]
0.001 to 0.1	IV (IV: >100-1000)	1 to 10	O=C(NO)c1cc(F)c2c(c1)CCN(C1CCC13COC3)C2 (stereo not drawn) [Compound 300, 8-fluoro-2-(2-oxaspiro[3.3]heptan-7-yl)-3,4-dihydro-1H-isoquinoline-6-carbohydroxamic acid]
0.001 to 0.1	IV (IV: >100-1000)	1 to 10	O=C(NO)c1cc(F)c2c(c1)CCN(C1CCC13CNC3)C2 (stereo not drawn) [Compound 301, 2-(2-azaspiro[3.3]heptan-7-yl)-8-fluoro-3,4-dihydro-1H-isoquinoline-6-carbohydroxamic acid]
0.001 to 0.1	IV (IV: >100-1000)	1 to 10	CN1CC2(CCC2N2CCc3cc(C(=O)NO)cc(F)c3C2)C1 (stereo not drawn) [Compound 302, 8-fluoro-2-(2-methyl-2-azaspiro[3.3]heptan-7-yl)-3,4-dihydro-1H-isoquinoline-6-carbohydroxamic acid]
0.001 to 0.1	III (III: >10-100)	1 to 10	O=C(NO)c1cc(F)c2c(c1)CCN(C1CCC13CN(C1CC1)C3)C2 (stereo not drawn) [Compound 303, 2-(2-cyclopropyl-2-azaspiro[3.3]heptan-7-yl)-8-fluoro-3,4-dihydro-1H-isoquinoline-6-carbohydroxamic acid]
0.001 to 0.1	IV (IV: >100-1000)	1 to 10	CC(=O)N1CC2(CCC2N2CCc3cc(C(=O)NO)cc(F)c3C2)C1 (stereo not drawn) [Compound 304, 2-(2-acetyl-2-azaspiro[3.3]heptan-7-yl)-8-fluoro-3,4-dihydro-1H-isoquinoline-6-carbohydroxamic acid]
0.001 to 0.1	IV (IV: >100-1000)	1 to 10	O=C(NO)c1cc(F)c2c(c1)CCN(C1CCC13CCCC3)C2 (stereo not drawn) [Compound 314, 8-fluoro-2-spiro[3.4]octan-3-yl-3,4-dihydro-1H-isoquinoline-6-carbohydroxamic acid]
0.001 to 0.1	V (V: >1000)	> 100	CN1CCCCC12CC(N1CCc3cc(C(=O)NO)cc(F)c3C1)C2 (stereo not drawn) [Compound 352, 8-fluoro-2-(5-methyl-5-azaspiro[3.5]nonan-2-yl)-3,4-dihydro-1H-isoquinoline-6-carbohydroxamic acid]
0.001 to 0.1	IV (IV: >100-1000)	10 to 100	O=C(NO)c1cc(F)c2c(c1)CCN(C1CC3(CCCCN3C3CC3)C1)C2 (stereo not drawn) [Compound 353, 2-(5-cyclopropyl-5-azaspiro[3.5]nonan-2-yl)-8-fluoro-3,4-dihydro-1H-isoquinoline-6-carbohydroxamic acid]
0.001 to 0.1	V (V: >1000)	10 to 100	CC(=O)N1CCCCC12CC(N1CCc3cc(C(=O)NO)cc(F)c3C1)C2 (stereo not drawn) [Compound 355, 2-(5-acetyl-5-azaspiro[3.5]nonan-2-yl)-8-fluoro-3,4-dihydro-1H-isoquinoline-6-carbohydroxamic acid]
0.001 to 0.1	IV (IV: >100-1000)	1 to 10	O=C(NO)c1cc(F)c2c(c1)CCN(C1CCC13CCNCC3)C2 (stereo not drawn) [Compound 357, 2-(7-azaspiro[3.5]nonan-3-yl)-8-fluoro-3,4-dihydro-1H-isoquinoline-6-carbohydroxamic acid]
0.001 to 0.1	IV (IV: >100-1000)	1 to 10	CN1CCC2(CCC2N2CCc3cc(C(=O)NO)cc(F)c3C2)CC1 (stereo not drawn) [Compound 358, 8-fluoro-2-(7-methyl-7-azaspiro[3.5]nonan-3-yl)-3,4-dihydro-1H-isoquinoline-6-carbohydroxamic acid]
0.1 to 1	III (III: >10-100)	1 to 10	O=C(NO)c1cc(F)c2c(c1)CCN(C1CCC13CCN(C1CC1)CC3)C2 (stereo not drawn) [Compound 359, 2-(7-cyclopropyl-7-azaspiro[3.5]nonan-3-yl)-8-fluoro-3,4-dihydro-1H-isoquinoline-6-carbohydroxamic acid]
0.001 to 0.1	IV (IV: >100-1000)	10 to 100	CC(=O)N1CCC2(CCC2N2CCc3cc(C(=O)NO)cc(F)c3C2)CC1 (stereo not drawn) [Compound 360, 2-(7-acetyl-7-azaspiro[3.5]nonan-3-yl)-8-fluoro-3,4-dihydro-1H-isoquinoline-6-carbohydroxamic acid]
0.001 to 0.1	IV (IV: >100-1000)	10 to 100	O=C(NO)c1cc(F)c2c(c1)CCN(C1CCC3(COC3)C1)C2 (stereo not drawn) [Compound 387, 8-fluoro-2-(2-oxaspiro[3.4]octan-6-yl)-3,4-dihydro-1H-isoquinoline-6-carbohydroxamic acid]
0.001 to 0.1	IV (IV: >100-1000)	10 to 100	O=C(NO)c1cc(F)c2c(c1)CCN(C1CCC3(CNC3)C1)C2 (stereo not drawn) [Compound 388, 8-fluoro-N-hydroxy-2-(2-azaspiro[3.4]octan-6-yl)-1,2,3,4-tetrahydroisoquinoline-6-carboxamide]
0.001 to 0.1	V (V: >1000)	> 100	CN1CC2(CCC(N3CCc4cc(C(=O)NO)cc(F)c4C3)C2)C1 (stereo not drawn) [Compound 389, 8-fluoro-2-(2-methyl-2-azaspiro[3.4]octan-6-yl)-3,4-dihydro-1H-isoquinoline-6-carbohydroxamic acid]
0.1 to 1	III (III: >10-100)	10 to 100	O=C(NO)c1cc(F)c2c(c1)CCN(C1CCC3(C1)CN(C1CC1)C3)C2 (stereo not drawn) [Compound 390, 2-(2-cyclopropyl-2-azaspiro[3.4]octan-6-yl)-8-fluoro-3,4-dihydro-1H-isoquinoline-6-carbohydroxamic acid]
